Several values for one entry are separate records, joined by “and”; a condition that tells them apart may be missing. Identical values can stand only once.
Tested on: Staphylococcus aureus (ATCC 6538)
Test: Microbicidal activity against Staphylococcus aureus (suspension test, surviving CFU)
Assay type: cell-based
Protocol: Bacterial suspensions, specifically Staphylococcus aureus (ATCC 6538) in this example, were prepared by the shake flask method to achieve late log to early stationary phase growth. Bacteria were grown 24 hours in trypticase soy broth (TSB) at 35° C. The cultures were centrifuged at 4,000 rpm for 10 minutes and the supernatants removed. The pellet was collected and washed twice with sterile 0.9% normal saline. The washed microorganisms were suspended and diluted with normal saline to a 3 McFarland standard, i.e., approximately 10^9 bacteria colony forming units (CFU) per ml. Actual colony counts are confirmed by serial dilutions (10^−1 to 10^−5 or 10^−6) plated on trypticase soy agar (TSA) and incubated overnight at 35° C. One hundred microliters of organisms from a stock of 10^7 CFU/ml were used to obtain an approximate final working target inoculum of 10^6 CFU. The microbicidal test is conducted in a vial containing 1.4 ml of final reaction mixture after neutralization.
Each solution was used alone for the individual controls. Organism suspensions were used to achieve a final target concentration of 2-3×10^6 CFU per ml. For the binary system treatments, sodium hypochlorite solution and hydrogen peroxide solution, non-acidified or acidified, were sequentially added to the microorganisms. Acidified hydrogen peroxide solution was obtained by the addition of 1.0% v/v of 0.001 N hydrochloride solution. After each addition, the resulting mixture was allowed to remain in contact with the organisms for a set amount of time at room temperature (about 22° C.), as listed in the Tables 1 and 2. At the end of the treatment time, the mixtures were neutralized with 200 to 500 microliters of thiosulfate solution (2.4%) to quench the activity of sodium hypochlorite and then treated with 100 to 200 microliters of a 1% catalase solution, containing a minimum of 100 units/ul, to quench the hydrogen peroxide activity. If needed, an appropriate volume of sterile saline was added to bring the final volume of reaction mixture to 1.4 ml after neutralization. Serial dilution plate counts were performed from the contents of each vial in sterile saline and inoculated onto TSA for quantitative culture. Plates were then incubated at 37° C. and counts taken at 24 hours.
After an additional 30 minutes, the binary system mixture was then neutralized using 2.4% thiosulfate followed by 1% catalase as described in the Methods Section.

[1] = NaOCl 0.02 mM 15 min, then saline 30 min, inoculum 2530000 CFU
[2] = NaOCl 0.02 mM 15 min, inoculum 2500000 CFU
[3] = NaOCl 0.02 mM 15 min, inoculum 2530000 CFU
[4] = NaOCl 0.03 mM 15 min, then saline 30 min, inoculum 2530000 CFU
[5] = NaOCl 0.03 mM 15 min, inoculum 2500000 CFU
[6] = NaOCl 0.03 mM 15 min, inoculum 2530000 CFU
[7] = NaOCl 0.04 mM 15 min, then saline 30 min, inoculum 2530000 CFU
[8] = NaOCl 0.04 mM 15 min, inoculum 2500000 CFU
[9] = NaOCl 0.04 mM 15 min, inoculum 2530000 CFU
[10] = NaOCl 0.05 mM 15 min, then saline 30 min, inoculum 2530000 CFU
[11] = NaOCl 0.05 mM 15 min, inoculum 2530000 CFU
[12] = NaOCl 0.06 mM 15 min, then saline 30 min, inoculum 2530000 CFU
[13] = NaOCl 0.06 mM 15 min, inoculum 2530000 CFU
[14] = NaOCl 0.07 mM 5 min, inoculum 1600000 CFU
[15] = NaOCl 0.07 mM 15 min, then saline 30 min, inoculum 2530000 CFU
[16] = NaOCl 0.07 mM 15 min, inoculum 1600000 CFU
[17] = NaOCl 0.07 mM 15 min, inoculum 2530000 CFU
[18] = NaOCl 0.07 mM 30 min, inoculum 1600000 CFU
[19] = NaOCl 0.71 mM 5 min, inoculum 1600000 CFU
[20] = NaOCl 0.71 mM 15 min, inoculum 1600000 CFU
[21] = NaOCl 0.71 mM 30 min, inoculum 1600000 CFU
[22] = NaOCl 7.05 mM 5 min, inoculum 1600000 CFU
[23] = NaOCl 7.05 mM 15 min, inoculum 1600000 CFU
[24] = NaOCl 7.05 mM 30 min, inoculum 1600000 CFU
[25] = NaOCl 70.53 mM 5 min, inoculum 1600000 CFU
[26] = NaOCl 70.53 mM 15 min, inoculum 1600000 CFU
[27] = NaOCl 70.53 mM 30 min, inoculum 1600000 CFU
[28] = NaOCl 705.27 mM 5 min, inoculum 1600000 CFU
[29] = NaOCl 705.27 mM 15 min, inoculum 1600000 CFU
[30] = NaOCl 705.27 mM 30 min, inoculum 1600000 CFU

[Na+].[O-]Cl [NaOCl, sodium hypochlorite]
Log 10 (CFU + 1) Survivors [1]: 3.0 | Log Reduction [1]: 3.4 | Total Viability (CFU) [1]: 1092 CFU | Log 10 (CFU + 1) Survivors [2]: 6.3 | Log Reduction [2]: 0.1 and 0.12 | Total Viability (CFU) [2]: 1890000 CFU | Log 10 (CFU + 1) Survivors [3]: 3.1 | Log Reduction [3]: 3.3 and 3.29 | Total Viability (CFU) [3]: 1288 CFU | Log 10 (CFU + 1) Survivors [4]: 2.4 | Log Reduction [4]: 4.0 | Total Viability (CFU) [4]: 260 CFU | Log 10 (CFU + 1) Survivors [5]: 4.9 | Log Reduction [5]: 1.5 and 1.53 | Total Viability (CFU) [5]: 74200 CFU | Log 10 (CFU + 1) Survivors [6]: 2.9 | Log Reduction [6]: 3.5 and 3.51 | Total Viability (CFU) [6]: 784 CFU | Log 10 (CFU + 1) Survivors [7]: 1.3 | Log Reduction [7]: 5.1 | Total Viability (CFU) [7]: 18 CFU | Log 10 (CFU + 1) Survivors [8]: 2.8 | Log Reduction [8]: 3.6 and 3.61 | Total Viability (CFU) [8]: 616 CFU | Log 10 (CFU + 1) Survivors [9]: 2.2 | Log Reduction [9]: 4.2 and 4.18 | Total Viability (CFU) [9]: 167 CFU | Log 10 (CFU + 1) Survivors [10]: 1.1 | Log Reduction [10]: 5.3 | Total Viability (CFU) [10]: 13 CFU | Log 10 (CFU + 1) Survivors [11]: 1.3 | Log Reduction [11]: 5.1 and 5.15 | Total Viability (CFU) [11]: 17 CFU | Log 10 (CFU + 1) Survivors [12]: 0.9 | Log Reduction [12]: 5.5 | Total Viability (CFU) [12]: 7 CFU | Log 10 (CFU + 1) Survivors [13]: 0.0 | Log Reduction [13]: 6.4 | Total Viability (CFU) [13]: 0 CFU | Log 10 (CFU + 1) Survivors [14]: 0.7 | Log Reduction [14]: 5.5 | Total Viability (CFU) [14]: 4 CFU | Total Viability (CFU) (NaOCl 0.07 mM 5 min, inoculum 1600000 CFU, listed as sodium hypochlorite): four | Log 10 (CFU + 1) Survivors [15]: 0.0 | Log Reduction [15]: 6.4 | Total Viability (CFU) [15]: 0 CFU | Log 10 (CFU + 1) Survivors [16]: 0.9 | Log Reduction [16]: 5.3 | Total Viability (CFU) [16]: 7 CFU | Total Viability (CFU) (NaOCl 0.07 mM 15 min, inoculum 1600000 CFU, listed as sodium hypochlorite): seven | Log 10 (CFU + 1) Survivors [17]: 0.0 | Log Reduction [17]: 6.4 | Total Viability (CFU) [17]: 0 CFU | Log 10 (CFU + 1) Survivors [18]: 0.0 | Log Reduction [18]: 6.2 | Total Viability (CFU) [18]: 0 CFU | Log 10 (CFU + 1) Survivors [19]: 0.0 | Log Reduction [19]: 6.2 | Total Viability (CFU) [19]: 0 CFU | Log 10 (CFU + 1) Survivors [20]: 0.0 | Log Reduction [20]: 6.2 | Total Viability (CFU) [20]: 0 CFU | Log 10 (CFU + 1) Survivors [21]: 0.0 | Log Reduction [21]: 6.2 | Total Viability (CFU) [21]: 0 CFU | Log 10 (CFU + 1) Survivors [22]: 0.0 | Log Reduction [22]: 6.2 | Total Viability (CFU) [22]: 0 CFU | Log 10 (CFU + 1) Survivors [23]: 0.0 | Log Reduction [23]: 6.2 | Total Viability (CFU) [23]: 0 CFU | Log 10 (CFU + 1) Survivors [24]: 0.0 | Log Reduction [24]: 6.2 | Total Viability (CFU) [24]: 0 CFU | Log 10 (CFU + 1) Survivors [25]: 0.0 | Log Reduction [25]: 6.2 | Total Viability (CFU) [25]: 0 CFU | Log 10 (CFU + 1) Survivors [26]: 0.0 | Log Reduction [26]: 6.2 | Total Viability (CFU) [26]: 0 CFU | Log 10 (CFU + 1) Survivors [27]: 0.0 | Log Reduction [27]: 6.2 | Total Viability (CFU) [27]: 0 CFU | Log 10 (CFU + 1) Survivors [28]: 0.0 | Log Reduction [28]: 6.2 | Total Viability (CFU) [28]: 0 CFU | Log 10 (CFU + 1) Survivors [29]: 0.0 | Log Reduction [29]: 6.2 | Total Viability (CFU) [29]: 0 CFU | Log 10 (CFU + 1) Survivors [30]: 0.0 | Log Reduction [30]: 6.2 | Total Viability (CFU) [30]: 0 CFU

— US20070264355A1, “BINARY COMPOSITIONS AND METHODS FOR STERILIZATION” (Binary, LLC, priority 2005, published 2007)
